Measurements as given in patent US20050036993A1, “Immune activation by double-stranded polynucleotides” (priority 1998, published 2005).

What was measured:
vaccinia viruses = conditions: cited from earlier work
herpes simplex = conditions: cited from earlier work
[1] = system: MHC Class I and Class II gene expression; conditions: cited from earlier work
[2] = system: MHC Class I, TAP-1, LMP2, MHC Class II, invariant chain, HLA-DM, 90K tumor-associated immunostimulator; assay: Drug suppression of ds polynucleotide-induced MHC and antigen-presenting gene expression in FRTL-5 cells (Northern); type: cell-based, rat; conditions: for ability of dsDNA to increase MHC Class I, TAP-1, LMP2, MHC Class II, invariant chain, HLA-DM, and 90K gene expression / ability of dsRNA to increase MHC Class I, TAP-1, LMP2, MHC Class II, invariant chain, HLA-DM, and 90K gene expression: FRTL-5 cells with TSH (6H5) or without TSH (5H5), 48 hours pretreatment, compound 10 0.5 mM, MMI 5 mM; for ability of dsDNA to increase MHC Class I, TAP-1, LMP2, MHC Class II, invariant chain, HLA-DM, and 90K gene expression: 2-mercaptoimidazole 5 mM, 5 ug dsDNA; for ability of dsRNA to increase MHC Class I, TAP-1, LMP2, MHC Class II, invariant chain, HLA-DM, and 90K gene expression: 5 ug dsRNA; for dsDNA or dsRNA transfection efficiency: FRTL-5 cells, drug-treated
female NOD mice = conditions: cited from earlier work
female (NZBxNZW)F1 mice = conditions: cited from earlier work
human fibroblasts = assay: Drug suppression of ds DNA or RNA effect in human fibroblasts; type: cell-based
Description: (§1) In this experiment (FIG. 6), cells were pretreated with MMI and compound 10 for 2 days before tranfection. […] The effect was therefore not thyroid cell restricted.

HUVEC cells = assay: Drug suppression of ds DNA or RNA effect in endothelia (HUVEC) cells; type: cell-based, human
Description: as §1

mouse dendritic cells = assay: Drug suppression of ds DNA or RNA effect in mouse dendritic cells; type: cell-based
Description: as §1

FRTL-5 rat thyroid cells = assay: DNA staining and cell cycle analysis (FACS) of FRTL-5 cells; type: cell-based; conditions: for cell cycle arrest: 5H medium 6 days then 6H medium (TSH 1×10^−10M), 5 mM methimazole or 0.5 mM compound 10; for percentage of cells in S + G2/M phase: Methimazole 5 mM, Compound 10 0.5 mM; for action of the ds nucleic acids on cell cycle progression: Table 2 experiment, 4H medium; for effect of ds nucleic acids on growth: summary statement
Method: Cells were diploid and between their 5th and 25th passage. Fresh medium was added every 2 or 3 days and cells were passaged every 7-10 days. In some experiments, as noted, cells were grown to near confluency in 6H medium then maintained in 5H medium (which contains no TSH) or 4H medium (with no TSH and no insulin) for 6-8 days before experiments were initiated. Treatment with 5H or 4H medium synchronizes the cells by piling them up in G0/G1 (A. Hirai, et al., J. Biol. Chem. 272: 13-16 (1997); Y. Noguchi, et al., J. Biol. Chem. 273: 3649-3653 (1998)).
DNA Staining and Cell Cycle Analysis—The procedure used was a modification of that described (P. Smerdely, et al., Endocrinology 133: 2403-2406 (1993)). It used the Cycle TEST PLUS DNA Reagent Kit (Becton Dickinson, San Jose, Calif.); and FACS analysis was performed according to the manufacturer's instructions. Briefly, 5×10^5 cells were incubated with 250 T1 of Solution A (trypsin buffer) for 10 min at room temperature, then 200 T1 of Solution B (trypsin inhibitor and ribonuclease A buffer) was added and further incubated for 10 min. Cold Solution C (propidium iodide stain solution) was added and incubated for 10 min at 4° C. in the dark. FACS analysis was performed using FACScan (Becton Dickinson, San Jose, Calif.). Each analysis was performed in triplicate on cells from 3 different plates; the histogram had at least 10,000 events and a coefficient of variation less than 5%.
In the experiment above, there was a minimal direct methimazole effect on the cell cycle because the cells were maintained in 4H medium without insulin; methimazole action requires insulin (O. Isozaki, et al., Mol. Endocrinol, 3: 1681-1692 (1989); O. Isozaki, et al., Endocrinology 128: 3113-3121 (1991)). […] In this experiment, FRTL-5 cells were grown to near confluency in 6H medium, then shifted to 5H medium without TSH for 6 days. The experiments were initiated by returning the cells to 6H medium to reinitiate the cell cycle. Cells were treated with 5 mM methimazole and transfected or not with dsDNA or dsRNA. After 36 hours they were subjected to cell cycle analysis. […] In this experiment, FRTL-5 cells were grown to near confluency in 6H medium, then shifted to 5H medium without TSH for 6 days. The experiments were initiated by returning the cells to 6H medium to reinitiate the cell cycle. Cells were treated with 0.5 mM 5-phenylmethimazole (compound 10) and transfected or not with dsDNA or dsRNA. After 36 hours they were subjected to cell cycle analysis.

[3] = Control (no ds nucleic acid), FRTL-5 cells 6 days in 4 H medium without insulin or TSH
[4] = transfected with dsDNA, FRTL-5 cells 6 days in 4 H medium
[5] = transfected with dsRNA, FRTL-5 cells 6 days in 4 H medium

Compound: 1,3-dimethyl-4-phenylimidazoline-2-thione
- antiviral properties (vaccinia viruses): antiviral properties
- antiviral properties (herpes simplex): antiviral properties

Compound: Sc1ncc[nH]1 [2-mercaptoimidazole, reference compound]
- activity as antimmune drug [1]: inactive
- ability of dsDNA to increase MHC Class I, TAP-1, LMP2, MHC Class II, invariant chain, HLA-DM, and 90K gene expression [2]: no effect

Compound: Cn1c(-c2ccccc2)c[nH]c1=S [Compound 10, 5-phenylmethimazole]
- development of Diabetes (female NOD mice): suppress the development
- development of systemic lupus erythematosus (SLE) (female (NZBxNZW)F1 mice): suppress the development
- activity as antimmune drug [1]: most active
- potency relative to MMI [1]: 10- to 100 fold
- effect on cells transfected with double strand DNA or RNA (human fibroblasts): similarly effective
- effect on cells transfected with double strand DNA or RNA (HUVEC cells): similarly effective
- ability of dsDNA to increase MHC Class I, TAP-1, LMP2, MHC Class II, invariant chain, HLA-DM, and 90K gene expression [2]: significantly decreases
- ability of dsDNA to increase MHC Class I, TAP-1, LMP2, MHC Class II, invariant chain, HLA-DM, and 90K gene expression ([2]; listed as compound 10): better than 5 mM MMI
- ability of dsRNA to increase MHC Class I, TAP-1, LMP2, MHC Class II, invariant chain, HLA-DM, and 90K gene expression [2]: decreases
- ability of dsRNA to increase MHC Class I, TAP-1, LMP2, MHC Class II, invariant chain, HLA-DM, and 90K gene expression ([2]; listed as compound 10): better than MMI
- dsDNA or dsRNA transfection efficiency [2]: does not affect
- expression of MHC and antigen-presenting genes, coincident transfection and treatment ([2]; no pretreatment): resulted in suppression
- effect on cells transfected with double strand DNA or RNA (mouse dendritic cells): similarly effective
- cell cycle arrest (FRTL-5 rat thyroid cells; 36 hours): no such effect
- effect on ds nucleic acid effects on cell cycle (FRTL-5 rat thyroid cells; 5H then 6H medium, 0.5 mM compound 10, 36 hours): no effect
- percentage of cells in S + G2/M phase (FRTL-5 rat thyroid cells; [3]): 10.5%
- action of the ds nucleic acids on cell cycle progression (FRTL-5 rat thyroid cells): inhibit
- effect of ds nucleic acids on growth (FRTL-5 rat thyroid cells): does not
- percentage of cells in S + G2/M phase (FRTL-5 rat thyroid cells; [4]): 11.0%
- percentage of cells in S + G2/M phase (FRTL-5 rat thyroid cells; [5]): 4.5%

Compound: Cn1cc[nH]c1=S [Methimazole, methimazole, reference compound]
- ability of dsDNA to increase MHC Class I, TAP-1, LMP2, MHC Class II, invariant chain, HLA-DM, and 90K gene expression [2]: INHIBIT
- dsDNA or dsRNA transfection efficiency [2]: does not affect
- cell cycle arrest (FRTL-5 rat thyroid cells; 36 hours): arrest in the G2/M1 phase
- percentage of cells in S + G2/M phase (FRTL-5 rat thyroid cells; [3]): 6.3%
- action of the ds nucleic acids on cell cycle progression (FRTL-5 rat thyroid cells): inhibit
- effect of ds nucleic acids on growth (FRTL-5 rat thyroid cells): counteracts
- percentage of cells in S + G2/M phase (FRTL-5 rat thyroid cells; [4]): 11.4%
- percentage of cells in S + G2/M phase (FRTL-5 rat thyroid cells; [5]): 7.4%
